From patent US8431581B2, “Imidazopyrimidines and uses thereof” (priority 2008, dated 2013) come the findings set out here.

The test system of experiment [1] is HIV-1 reporter virus, wild-type (WT) integrase. As to the kind of experiment: Luciferase reporter virus infectivity assay, WT. Format: cell-based. The settings on record: Human immunodeficiency virus 1, HEK-293T, 48 h, read-out: Luciferase assay results WT (EC50). The source says: (§1) Infectivity assays using reporter viruses derived from lentiviral vectors capable of a single round of infection were used to determine the activity (EC50) of compounds. The DNA used to generate viruses for infection was the full-length HIV-1 genome which had been envelope-deleted. In addition, a reporter gene (the firefly luciferase gene from Photinus pyralis) was cloned into the nef region of the HIV backbone for ease of assay readout. […]. Culture supernatants containing VSV-G pseudotyped virions were harvested 64 h post transfection, clarified by centrifugation to remove cell debris, and frozen at −70° C. until use.
(§2) HIV integrase was mutated within a shuttle vector (pGEM) containing the majority of the HIV-1 gag and pol sequence using site-directed mutagenesis to generate sequences that are known to confer resistance to published integrase inhibitors. These include but are not limited to mutations such as Q148H/G140S (in tables 2 and 3 # QHGS), N155H/E92Q (in table 2 # NHEQ), F121Y/T124K (in table 2 FYTK), Y143R (in table 2 # Y143R) and the triple mutant Q148K/G140A/E138A. (in table 2 # QKGAEA). The mutated integrase coding region within the shuttle vector was sequence verified, and then exchanged for the wild-type (WT) coding sequence in the reporter virus DNA backbone.
(§3) 293T cells were plated out at 12000 cells per well in CellView 96-well cell culture plates (Invitrogen) 16 h prior to compound addition. Compounds were preincubated with cells for 4 h at 37° C. prior to the addition of virus sufficient to generate approximately 10000 Luciferase light units (as measured by the Victor Wallace luminometer) upon assaying using the Bright-Glo™ reagent (Promega) according to the manufacturer's instructions at 48 h post infection.
A general note: Reporter assays use an easily measured gene product as a stand-in for the process of interest.

For experiment [2], the system named is HIV-1 reporter virus, integrase N155H/E92Q (NHEQ). As to the kind of experiment: Luciferase reporter virus infectivity assay, NHEQ mutant. The conditions noted are these: Human immunodeficiency virus 1, HEK-293T, read-out: Luciferase assay results NHEQ (EC50). Format: cell-based.
Excerpt: as §1, §2, §3

Experiment [3] concerns HIV-1 reporter virus, integrase Q148H/G140S (QHGS). As to the kind of experiment: Luciferase reporter virus infectivity assay, QHGS mutant. It counts as cell-based. The settings on record: Human immunodeficiency virus 1, HEK-293T, read-out: Luciferase assay results QHGS (EC50).
Excerpt: as §1, §2, §3

Experiment [4] has as its system HIV variant T661 S153Y integrase. Kind of experiment: Phenosense (PhenoScreen) assay, T661 S153Y variant. It counts as cell-based. The conditions noted are these: Human immunodeficiency virus 1, read-out: Phenosense assay T661 S153Y activity value. The source says:
(§4) Monogram Bioscience' PhenoScreen assay allows the evaluation of integrase inhibitors for activity against a variety of HIV variants. The assay uses virus generated from 2 DNA constructs; one containing the HIV LTR, gag and pol regions, as well as a luciferase reporter gene in place of the viral envelope genes, and a second DNA construct containing the amphotrophic murine leukemia virus (A-MLV) envelope gene required to pseudotype virions and render them capable of entry into a target cell. Viruses generated using these constructs by transfection into a producer cell line such as 293T are capable of one-round of infection only. Successful integration events are directly proportional to the levels of luciferase expression 48-72 h after infection.
(§5) The viral variants chosen by Avexa Ltd. to screen their in-house integration inhibitors against consist of mutations within the viral integrase enzyme known to confer resistance to a number of known integration inhibitors published in the literature. In particular, the viral variants containing the Q148H/G140S double mutation in integrase, and the N155H/E92Q double mutation in integrase, represent two of the more common viruses identified to arise in patients that are failing treatment with Isentress (Raltegravir, MK-0518).
(§6) Both the Phenosense assay and the Enzyme assay give substantially the same activity values for any particular compound and enzyme pair. The activity of one compound in one assay can therefore be directly compared to the activity of a second compound in the other assay.

Experiment [5] relates to HIV variant T125K F121Y integrase. As to the kind of experiment: Phenosense (PhenoScreen) assay, T125K F121Y variant. Format: cell-based. The conditions noted are these: Human immunodeficiency virus 1, read-out: Phenosense assay T125K F121Y activity value.
Excerpt: as §4, §5, §6

Another experiment concerns HIV WT integrase. As to the kind of experiment: Phenosense (PhenoScreen) assay, wild type virus. It counts as cell-based. The settings on record: Human immunodeficiency virus 1, read-out: Phenosense assay WT activity value.
Excerpt: as §4, §5, §6

For experiment [6], the system named is HIV variant E92Q N155H integrase. Kind of experiment: Phenosense (PhenoScreen) assay, E92Q N155H variant. It counts as cell-based. The conditions noted are these: Human immunodeficiency virus 1, read-out: Phenosense assay E92Q N155H activity value.
Excerpt: as §4, §5, §6

Experiment [7] has as its system HIV variant Y143R integrase. As to the kind of experiment: Phenosense (PhenoScreen) assay, Y143R variant. It counts as cell-based. The settings on record: Human immunodeficiency virus 1, read-out: Phenosense assay Y143R activity value.
Excerpt: as §4, §5, §6

The test system of experiment [8] is HIV variant G140S Q148H integrase. As to the kind of experiment: Phenosense (PhenoScreen) assay, G140S Q148H variant. It counts as cell-based. The settings on record: Human immunodeficiency virus 1, read-out: Phenosense assay G140S Q148H activity value.
Excerpt: as §4, §5, §6

The target in another experiment is T1, HIV integrase WT (Human immunodeficiency virus type 1 group M subtype B, UniProt P12497).
T1 construct: The integrase coding region was then subject to PCR and cloned into a bacterial expression vector; made in house
As to the kind of experiment: Strand transfer assay (enzyme assay), wild type. Format: biochemical, HIV-1.
Excerpt: HIV integrase was mutated within a shuttle vector (pGEMNLHE) containing the majority of the HIV-1 gag and pol sequence using site directed mutagenesis to generate integrase sequences that have been published as conferring resistance to published integrase inhibitors. These include, but are not limited to, mutations such as Q148K, Q148H/G140S and N155H/E92Q. The integrase coding region was then subject to PCR and cloned into a bacterial expression vector. The specific introduction of desired mutation(s) was confirmed by sequence analysis. Proteins were expressed, purified and used in strand transfer assays.
A strand transfer assay procedure similar to that published (Ovenden et al. Phytochemistry. 2004 December; 65(24):3255-9.) is used. Briefly, 400 ng of the enzyme, wild type or drug resistant mutant, is mixed with the compound to be tested and incubated with 30 nM substrate DNA. The substrate DNA is designed to mimic HIV DNA termini that has undergone 3′ end processing, and consists of the annealed U5 LTR sequence oligonucleotides tagged with Digoxigenin (DIG; 5′-[…]-DIG-3′) or biotin (5′-Bio-[…]-3′) so that each substrate has either a DIG or Bio tag on opposite strands. Reactions are carried out for 1 hr at 37° C. Products generated as a result of strand transfer activity are bound to streptavidin plates and detected using anti-DIG-alkaline phosphatase conjugate and p-nitro phenyl phosphate substrate.
as §6

Each structure is given as a SMILES string. Bounds are passed on as bounds.

`C[C@H]1CN(C(=O)Cn2ccn3c(=O)c(O)c(-c4ncc(Cc5ccc(F)cc5)s4)nc23)C[C@H](C)O1` [drawing 254]: the EC50 was 1 to 100 nM in experiment [1], 100 to 1000 nM in experiment [2] and 100 to 1000 nM in experiment [3].
One may read the IC50 as the concentration at which inhibition is half-maximal. As for `Cn1ccn2c(=O)c(O)c(C(=O)NCc3ccc(F)cc3)nc12`, the EC50 was 1000 to 10000 nM in experiment [4]; more than 10000 nM in experiment [5]; 100 to 1000 nM in the experiment on HIV WT integrase; more than 10000 nM in [6]; 100 to 1000 nM in experiment [7]; more than 10000 nM in experiment [8]. The half-maximal inhibitory concentration (IC50) at HIV integrase WT fell in the range of 100 to 1000 nM.
Take `O=C(Cn1ccn2c(=O)c(O)c(-c3ncc(Cc4ccc(F)cc4)o3)nc12)N1CCCCC1`: the EC50 was 1 to 100 nM in [4]; 100 to 1000 nM in experiment [5]; 1 to 100 nM in the experiment on HIV WT integrase; 100 to 1000 nM in experiment [6]; 100 to 1000 nM in experiment [7]; 1000 to 10000 nM in [8]. Besides, the IC50 against HIV integrase WT was 1 to 100 nM.
As for `Cn1ccn2c(=O)c(O)c(C(=O)NCc3ccc(Cl)c(Cl)c3)nc12`, the EC50 in experiment [4] was 100 to 1000 nM; in experiment [5], 1000 to 10000 nM; in the experiment with HIV WT integrase, 1 to 100 nM; in experiment [6], more than 10000 nM; in [7], 1 to 100 nM; in [8], more than 10000 nM. The compound also showed an IC50 against HIV integrase WT of 100 to 1000 nM.
On to `CN1CCN(C(=O)Cn2ccn3c(=O)c(O)c(-c4ncc(Cc5ccc(F)cc5)s4)nc23)CC1`, for which the figures for the EC50 in experiment [1], in experiment [2] and in experiment [3] were 100 to 1000 nM, 100 to 1000 nM and more than 1000 nM, respectively.
With `C[C@H]1CN(C(=O)Cn2ccn3c(=O)c(O)c(-c4ncc(Cc5ccc(F)c(Cl)c5)s4)nc23)C[C@H](C)O1`, the EC50 in experiment [1], in [2] and in experiment [3] was 100 to 1000 nM each time.
